A value given as a limit tells only on which side of the number the result lay.

Chain of Factor D (P00746 26-253): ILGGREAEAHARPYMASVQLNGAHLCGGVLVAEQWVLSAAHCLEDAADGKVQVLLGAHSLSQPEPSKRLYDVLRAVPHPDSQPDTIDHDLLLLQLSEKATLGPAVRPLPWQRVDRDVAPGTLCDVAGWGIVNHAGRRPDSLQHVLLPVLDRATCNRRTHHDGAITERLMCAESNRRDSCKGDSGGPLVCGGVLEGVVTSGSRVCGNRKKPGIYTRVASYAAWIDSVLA

The assay addresses Factor D (Homo sapiens, UniProt P00746). In words: Factor D esterolytic assay. The conditions noted are these: substrate Z-Lys-SBzl 1.29 mM, 100 mM HEPES, 500 mM NaCl, pH 7.5, 10% DMSO, tested a minimum of three times. The class given is biochemical. The protocol:
The IC50 value of a compound (i.e., the concentration of the compound that inhibits 50% of the enzymatic activity) was calculated according to the procedure reported in U.S. Pat. No. 6,653,340 B1, e.g., column 74 (incorporated by reference).
Specifically, the compounds were dissolved in a stock solution of DMSO at 10.0 or 100 mM. A portion of this stock solution was added to assay buffer in a final volume of 50 μL. Controls included buffer alone and enzyme solutions to which DMSO was added. Substrate was added to the reaction wells immediately or after incubation at room temperature. The reaction rates were measured spectrophotometrically by the generation of product at 405 nm for 600 sec. Background absorbance at 690 nm was measured and subtracted from the absorbance at 405 nm for each well.
The reaction rate for enzyme alone was compared to the rate of enzyme in the presence of inhibitor and the percent inhibition was calculated as shown below: […]
An established esterolytic assay for the measurement of Factor D activity and inhibition of Factor D activity was used (Kam, C. M.; McRae, B. J.; Harper, J. W.; Niemann, M. A.; Volanakis, J. E.; Powers, J. C. Human complement proteins D, C2, and B Active site mapping with peptide thioester substrates. J Biol. Chem. 1987, 262, 3444-3451). For this assay Z-Lys-SBzl, 1.29 mM (Kim, S.; Narayana, S. V. L; Volanakis, J. E. Mutational analysis of the substrate binding site of human complement Factor D. Biochemistry. 1994, 33, 14393-14399.) was used as the substrate for Factor D ([…]). Hydrolysis of this compound by Factor D liberated a free sulfhydryl group which is then reacted with 5,5′-dithiobis(2nitrobenzoic acid) producing an intense yellow color (Habeeb, A. F. S. A. Reaction of protein sulfhydryl groups with Ellman's Reagent. Methods in Enzymol. 1976, 25, 457-464). The assays were performed in 96 well microtiter plates and rates of hydrolysis were monitored at 405 nm on a Biotek Synergy H1 plate reader. Hydrolysis rates were reported as change in mOD/min. The assay was conducted in 100 mM HEPES, 500 mM NaCl, pH 7.5 containing 10% DMSO in a final volume of 50 μL per well.
An IC50, a compound concentration which inhibits 50% of the enzymatic activity, was calculated. Compounds in the examples were tested a minimum of three times.
Turning to `CC(=O)OCc1cc2cc(COc3ccccc3CC(=O)O)cc(-c3cccc(CN)c3)c2o1` [Compound 23h, 2-(2-((2-(acetoxymethyl)-7-(3-(aminomethyl)phenyl)benzofuran-5-yl)methoxy)phenyl)acetic acid], the IC50 – broadly, the concentration needed to halve the response being measured – was less than 1000 nM.
In the case of `Cc1ccc(CC(=O)O)c(OCc2cc(-c3ccnc(CN)c3)c3occc3c2)c1C` [Compound 22h, 2-(2-((7-(2-(aminomethyl)pyridin-4-yl)benzofuran-5-yl)methoxy)-3,4-dimethylphenyl)acetic acid], the IC50 was less than 1000 nM.
As for `NCc1cc(-c2cc(COc3ccc(F)cc3CC(=O)O)cc3cc(F)oc23)ccn1` [Compound 73c, 2-(2-((7-(2-(aminomethyl)pyridin-4-yl)-2-fluorobenzofuran-5-yl)methoxy)-5-fluorophenyl)acetic acid], the figure is less than 1000 nM; as for `NCc1cc(-c2cc(COc3ccccc3CC(=O)O)cc3c(F)coc23)ccn1` [Compound 47c, 2-(2-((7-(2-(aminomethyl)pyridin-4-yl)-3-fluorobenzofuran-5-yl)methoxy)phenyl)acetic acid], less than 1000 nM; as for `CCC(C(=O)O)c1ccccc1OCc1cc(-c2ccnc(CN)c2F)c2occc2c1` (centres unmarked) [Compound 38c, 2-(2-((7-(2-(aminomethyl)-3-fluoropyridin-4-yl)benzofuran-5-yl)methoxy)phenyl)butanoic acid], less than 1000 nM.
In the case of `CC(C)OC(=O)Nc1ccc(CC(=O)O)c(OCc2cc(-c3cccc(CN)c3)c3occc3c2)c1` [Compound 20h, 2-(2-((7-(3-(aminomethyl)phenyl)benzofuran-5-yl)methoxy)-4-((isopropoxycarbonyl)amino)phenyl)acetic acid], the IC50 is less than 1000 nM.
On to `NCc1nc(-c2cc(COc3ccccc3CC(=O)O)cc3ccoc23)cs1` [Compound 5e, 2-(2-((7-(2-(aminomethyl)thiazol-4-yl)benzofuran-5-yl)methoxy)phenyl)acetic acid], for which the IC50 was less than 1000 nM.
`CC(=O)c1ccc(CC(=O)O)c(OCc2cc(-c3ccnc(CN)c3F)c3occ(C(F)(F)F)c3c2)c1` [Compound 13f, 2-(4-acetyl-2-((7-(2-(aminomethyl)-3-fluoropyridin-4-yl)-3-(trifluoromethyl)benzofuran-5-yl)methoxy)phenyl)acetic acid]: the IC50 was less than 1000 nM.
Regarding `NCc1cc(-c2cc(COc3ccccc3CC(=O)O)cc3ccoc23)co1` [Compound 50e, 2-(2-((7-(5-(aminomethyl)furan-3-yl)benzofuran-5-yl)methoxy)phenyl)acetic acid], the IC50 was more than 10000 nM.
Take `NCc1cccc(-c2cc(COc3cc(C(F)(F)F)ccc3CC(=O)O)cc3ccoc23)c1F` [Compound 58b, 2-(2-((7-(3-(aminomethyl)-2-fluorophenyl)benzofuran-5-yl)methoxy)-4-(trifluoromethyl)phenyl)acetic acid]: the IC50 was less than 1000 nM.
With `NCc1cccc(-c2cc(C(=O)Nc3ccccc3CC(=O)O)cc3c2ccn3-c2ccccc2)c1` [Compound 71e, 2-(2-(4-(3-(aminomethyl)phenyl)-1-phenyl-1H-indole-6-carboxamido)phenyl)acetic acid], the IC50 is less than 1000 nM.
As for `NCc1cccc(-c2cc(C(CC(=O)O)Oc3ccccc3CC(=O)O)cc3ccoc23)c1` (centres unmarked) [Compound 62g, 3-(7-(3-(aminomethyl)phenyl)benzofuran-5-yl)-3-(2-(carboxymethyl)phenoxy)propanoic acid], the figure is less than 1000 nM; as for `CCC(N)c1cccc(-c2cc(COc3ccccc3CC(=O)O)cc3ccoc23)c1` (centres unmarked) [Compound 2f, 2-(2-((7-(3-(1-aminopropyl)phenyl)benzofuran-5-yl)methoxy)phenyl)acetic acid], less than 1000 nM; as for `Cn1cc(-c2c(COc3ccccc3CC(=O)O)cc(-c3cccc(CN)c3)c3occc23)cn1` [Compound 78e, 2-(2-((7-(3-(aminomethyl)phenyl)-4-(1-methyl-1H-pyrazol-4-yl)benzofuran-5-yl)methoxy)phenyl)acetic acid], less than 1000 nM.
On to `CCc1ccc(CC(=O)O)c(OCc2cc(-c3ccnc(CN)c3F)c3oc(F)cc3c2)c1` [Compound 59i, 2-(2-((7-(2-(aminomethyl)-3-fluoropyridin-4-yl)-2-fluorobenzofuran-5-yl)methoxy)-4-ethylphenyl)acetic acid], for which the IC50 was less than 1000 nM.
The result for `CCOC(=O)NC(C)c1ccc(CC(=O)O)c(OCc2cc(-c3cccc(CN)c3)c3occc3c2)c1` (single isomer, unassigned; (+)) [Compound 54g, (+)-2-(2-((7-(3-(aminomethyl)phenyl)benzofuran-5-yl)methoxy)-4-(1-(ethoxycarbonylamino)ethyl)phenyl)acetic acid] reads less than 1000 nM.
`NCc1csc(-c2cc(COc3ccccc3CC(=O)O)cc3ccoc23)n1` [Compound 6e, 2-(2-((7-(4-(aminomethyl)thiazol-2-yl)benzofuran-5-yl)methoxy)phenyl)acetic acid]: the IC50 was less than 1000 nM.
The result for `NCc1cccc(-c2cc(COc3ccccc3CC(=O)O)c(OCc3ccncc3)c3ccoc23)c1` [Compound 80g, 2-(2-((7-(3-(aminomethyl)phenyl)-4-(pyridin-4-ylmethoxy)benzofuran-5-yl)methoxy)phenyl)acetic acid] reads less than 1000 nM.
Take `CC(Oc1ccccc1CC(=O)O)c1cc(-c2cccc(CN)c2)c2occc2c1` (centres unmarked) [Compound 77e, 2-(2-(1-(7-(3-(aminomethyl)phenyl)benzofuran-5-yl)ethoxy)phenyl)acetic acid]: the IC50 was less than 1000 nM.
As for `NCc1cccc(-c2cc(COc3cc(OC(F)(F)F)ccc3CC(=O)O)cc3ccoc23)c1` [Compound 10d, 2-(2-((7-(3-(aminomethyl)phenyl)benzofuran-5-yl)methoxy)-4-(trifluoromethoxy)phenyl)acetic acid], the IC50 was less than 1000 nM.
On to `CC(C)(C)OC(=O)Cc1ccccc1OCc1cc(-c2ccnc(CN)c2F)c2occc2c1` [Compound 39e, tert-butyl 2-(2-((7-(2-(aminomethyl)-3-fluoropyridin-4-yl)benzofuran-5-yl)methoxy)phenyl)acetate], for which the IC50 was in the range of 1000 to 10000 nM.
As for `CC(N)c1ccc(CC(=O)O)c(OCc2cc(-c3cccc(CN)c3)c3occc3c2)c1` (single isomer, unassigned; (+)) [Compound 60a, (+)-2-(4-(1-aminoethyl)-2-((7-(3-(aminomethyl)phenyl)benzofuran-5-yl)methoxy)phenyl)acetic acid], the IC50 was less than 1000 nM.
As for `NCc1nccc(-c2cc(COc3ccc(F)cc3CC(=O)O)cc3cc(F)oc23)c1F` [Compound 17d, 2-(2-((7-(2-(aminomethyl)-3-fluoropyridin-4-yl)-2-fluorobenzofuran-5-yl)methoxy)-5-fluorophenyl)acetic acid], the figure is less than 1000 nM; as for `CC(O)c1ccc(CC(=O)O)c(OCc2cc(-c3cccc(CN)c3)c3occc3c2)c1` (centres unmarked) [Compound 72e, 2-(2-((7-(3-(aminomethyl)phenyl)benzofuran-5-yl)methoxy)-4-(1-hydroxyethyl)phenyl)acetic acid], less than 1000 nM.
As to `CCOC(=O)NCc1ccc(CC(=O)O)c(OCc2cc(-c3cccc(CN)c3)c3occc3c2)c1` [Compound 29c, 2-(2-((7-(3-(aminomethyl)phenyl)benzofuran-5-yl)methoxy)-4-((ethoxycarbonylamino)methyl)phenyl)acetic acid], the IC50 is less than 1000 nM.
With `NCc1cccc(-c2cc(COc3cc(C(=O)O)ccc3CC(=O)O)cc3ccoc23)c1` [Compound 9d, 3-((7-(3-(aminomethyl)phenyl)benzofuran-5-yl)methoxy)-4-(carboxymethyl)benzoic acid], the IC50 is less than 1000 nM.
For `COC(=O)Nc1ccc(CC(=O)O)c(OCc2cc(-c3cccc(CN)c3)c3occc3c2)c1` [Compound 19i, 2-(2-((7-(3-(aminomethyl)phenyl)benzofuran-5-yl)methoxy)-4-((methoxycarbonyl)amino)phenyl)acetic acid], the IC50 was less than 1000 nM.
As for `CC(=O)c1ccc(CC(=O)O)c(OCc2cc(-c3cccc(CN)c3)c3oc(F)cc3c2)c1` [Compound 64h, 2-(4-acetyl-2-((7-(3-(aminomethyl)phenyl)-2-fluorobenzofuran-5-yl)methoxy)phenyl)acetic acid], the figure is less than 1000 nM; as for `Cn1ccc(COc2c(COc3ccccc3CC(=O)O)cc(-c3cccc(CN)c3)c3occc23)n1` [Compound 79g, 2-(2-((7-(3-(aminomethyl)phenyl)-4-((1-methyl-1H-pyrazol-3-yl)methoxy)benzofuran-5-yl)methoxy)phenyl)acetic acid], less than 1000 nM.

The record behind these values is patent publication US20250275991A1, “ORAL COMPLEMENT FACTOR D INHIBITORS” (BioCryst Pharmaceuticals, Inc, priority 2019, published 2025).
